Laboratory results: US8217004B2, “Sequestering agent for micronutrient fertilisers” (priority 2005, dated 2012)

Columns and labels:
[1] = n-Octanol/water partition coefficients (Kow) of metal-ligand complexes, shake-flask method; assay type: physicochemical
From the text: n-Octanol/water partition coefficients (Kow) are commonly used to determine whether molecules can partition into hydrophobic (lipid-soluble) phases. Polar molecules, ie metals, generally partition in the water phase. Neutral, lipid soluble organic molecules may partition within the octanol phase according to their Kow. Most conventional chelate complexes (ie ZnEDTA^2−) partition within the water phase. […] The aim of this experiment was to determine whether Zn-Rhamnolipid complexes would partition within the n-octanol phase. Kow's were measured with varying Rhamnolipid concentrations. […] Final Rhamnolipid concentrations were (mM) 0, 0.1, 0.24, 0.5, 1, 1.5, 2, 2.5. Two millilitres of n-Octanol was added to the solutions before they were shaken end-over-end for 24 hours. Following shaking, 3 ml of solution was removed from the water phase and digested in concentrated HNO3 before analysis for total Zn by ICP-OES. The partition coefficient was calculated according to the equation above.

Canola [2] = assay: Canola dry matter response to foliar applied Zn (shoot immersion); assay type: in vivo, Canola (var. Pinnacle); details: Zn deficient Canola, shoots immersed five seconds; compared with ZnSO4 or ZnEDTA; FIG. 3; P<0.05, LSD=0.1496
From the text: Dry matter response in Zn deficient Canola was used as a measure of fertiliser effectiveness because it considers metabolically available Zn, rather than total Zn uptake. Pre-germinated Canola seedlings (var. […] After 13 days, whole shoots were immersed in ZnSO4.7H2O solutions for five seconds. […] Rhamnolipid rates were high enough to ensure a Zn Kow of at least 50 at the highest Zn application rate. […] Wetting agent was not required in the Rhamnolipid solutions because of the surfactant properties of the ligand. […] After the three-week growth period, plant roots and shoots were harvested, dried and weighed for dry matter production.

Canola [3] = assay: Pot experiment: availability of Zn fertiliser to Canola grown on alkaline and calcareous soils; assay type: in vivo, Canola (variety Pinnacle); details: calcareous grey sandy loam (Streaky Bay) and Sodosol (Birchip); 21 days; FIG. 2; LSD=1.72; p<0.01
From the text: Topsoils from each location were collected, oven dried and passed through a 2 mm sieve. The experimental fertilisers were mixed with 20g of soil, which was banded between 100 g of the unfertilised bulk soil. Total nutrient application equated to (μg/g soil) P 60, N 27, applied as TGMAP, and Zn 0.2 as ZnSO4.7H2O. Chelate rates were based on the concentrations required to complex between 75 and 100% of the Zn in the fertiliser solution. Rates varied depending on the equilibrium constant (logK) and the stoichiometry of the Zn-ligand complexes. […] Each treatment was replicated four times.
Two pre-germinated Canola seeds (variety Pinnacle) were transferred to each pot. The pots were watered to θg=0.5 with deionised water every second day and evaporation was reduced with polyethylene beads, which were spread over the exposed surface of each pot. The plants were grown for 21 days in a controlled environment growth chamber (10 h dark at 15° C., 14 h light at 20° C., 41% humidity) before the shoots were harvested, rinsed, dried, weighed and then digested in concentrated HNO3. Plant digests were analysed for ^65Zn by gamma spectroscopy and for total nutrient contents by ICP-OES.
Data for shoot dry weight, shoot nutrient concentrations and Zn fertiliser uptake were analysed by analysis of variance (ANOVA). Significance between means was determined using the Least Significant Difference (LSD) test.

[4] = published value; cited from earlier work

| Compound | partitioning of metal-ligand complex into the n-octanol phase (Kow) ([1]; Zn, Mn, Cu, shake-flask, 24 hours, FIG. 1) | Zn Kow ([1]; at the Rhamnolipid rates used for foliar test, at the highest Zn application rate) | plant foliar dry matter response to applied Zn (Canola [2]) | total Zn uptake by canola (roots absorbed and translocated into shoots) (Canola [3]) | logK of Zn complex [4] |
| --- | --- | --- | --- | --- | --- |
| rhamnolipid | dramatically facilitates the transfer of the metal ion from the aqueous phase into the octanol phase | at least 50 | significantly increased dry matter response to Zn | significantly increased total Zn uptake | – |
| O=C([O-])CN(CCN(CC(=O)O)CC(=O)O)CC(=O)[O-].[Zn+2] [ZnEDTA] | – | – | – | – | 16.5 |
| O=C(O)CN(CCN(CC(=O)O)CC(=O)O)CC(=O)O [EDTA, reference compound] | – | – | – | ineffective | – |
